Experimental data published in ChEMBL document CHEMBL1201862, “PubChem BioAssay data set” (2004).
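Five compound concentrations were applied to cells in 96-well plates for 48 hours; endpoints were derived by simple linear interpolation of the resulting dose-response curve. GI50 marks 50% less growth.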 The source made the active and inactive calls. No stated cut-off is given here; in the data, active = GI50 up to about 1.1 µM and inactive = higher.

Key:
Assay in all cases: inhibition of tumour cell growth, NCI panel, 48 h
[1] = test system: MDA-N
[2] = test system: IGROV-1
[3] = test system: UACC-257
[4] = test system: HT-29
[5] = test system: MOLT-4
[6] = test system: DU-145
[7] = test system: UACC-62
[8] = test system: RPMI-8226
[9] = test system: MDA-MB-435
[10] = test system: K562
[11] = test system: KM12
[12] = test system: COLO 205
[13] = test system: CAKI-1
[14] = test system: ACHN
[15] = test system: SNB-19
[16] = test system: SK-MEL-2
[17] = test system: NCI-H226
[18] = test system: HL-60
[19] = test system: NCI-H23
[20] = test system: NCI/ADR-RES

Measured: GI50

CCOC(=O)C(=[N+]=[N-])C(=O)Nc1nn2nnnc2c2ccccc12
inactive: [1] > 100 µM | [2] > 100 µM | [3] > 100 µM | [4] > 100 µM | [5] > 100 µM | [6] > 100 µM | [7] > 100 µM | [8] > 100 µM | [9] > 100 µM | [10] > 100 µM | [11] > 100 µM | [12] > 100 µM | [13] > 100 µM | [14] > 100 µM | [15] > 100 µM | [16] > 100 µM | [17] > 100 µM | [18] > 100 µM | [19] > 100 µM | [20] > 100 µM

COc1cc(OC)cc(-c2cc(=O)c3c(OC)c(OC)c(OC)c(OC)c3o2)c1
inactive: [1] 41.2 µM | [2] 32.2 µM | [3] 39.2 µM | [4] 28.7 µM | [5] 18.3 µM | [6] 30.2 µM | [7] 31.9 µM | [8] 16.9 µM | [9] 32.8 µM | [10] 20.7 µM | [12] 16.3 µM | [13] > 100 µM | [14] 27.2 µM | [15] 38.5 µM | [16] 18 µM | [17] 32.1 µM | [18] 7.26 µM | [19] 52.1 µM | [20] 29.8 µM

CCC1CC(=O)N(SCC(N)C(=O)O)C1=O (centres undefined)
inactive: [1] > 100 µM | [2] > 100 µM | [3] > 100 µM | [4] > 100 µM | [6] > 100 µM | [7] > 100 µM | [8] > 100 µM | [9] > 100 µM | [10] > 100 µM | [11] > 100 µM | [12] > 100 µM | [13] > 100 µM | [14] > 100 µM | [15] > 100 µM | [16] > 100 µM | [17] > 100 µM | [18] > 100 µM | [19] > 100 µM | [20] > 100 µM

O=c1n(CCCN2CCN(c3cccc(Cl)c3)CC2)nc2n1-c1ccc3ccccc3c1SC2
inactive: [1] > 100 µM | [2] > 100 µM | [3] > 100 µM | [4] 9.04 µM | [5] 7.93 µM | [6] > 100 µM | [7] > 100 µM | [8] 58.9 µM | [9] > 100 µM | [10] > 100 µM | [11] > 100 µM | [12] 4.4 µM | [13] > 100 µM | [15] > 100 µM | [16] > 100 µM | [17] > 100 µM | [18] > 100 µM | [20] > 100 µM

N#C/C(=C\c1ccccc1)C(=O)Nc1nnc(-c2ccccc2)o1
inactive: [1] 35.4 µM | [2] 27.6 µM | [3] 25.7 µM | [4] 41.3 µM | [5] 33.1 µM | [6] 50.4 µM | [7] 22.3 µM | [8] 19.2 µM | [9] 37.8 µM | [10] 26.4 µM | [11] 41.8 µM | [12] 28.3 µM | [13] 28.1 µM | [14] 35.6 µM | [16] 52.1 µM | [17] 44.9 µM | [18] 20.7 µM | [19] 39 µM | [20] 29.6 µM

Cc1cc(OCc2nn(CN3CCN(C)CC3)c(=S)n2/N=C/c2ccc(-c3ccc(Cl)cc3Cl)o2)ccc1Cl
inactive: [1] 39.3 µM | [2] > 100 µM | [3] 53.5 µM | [4] 28.2 µM | [5] 67.8 µM | [6] > 100 µM | [8] 17.1 µM | [9] 29.5 µM | [10] 34.6 µM | [11] 20.3 µM | [13] 47.9 µM | [14] > 100 µM | [16] > 100 µM | [17] 40.4 µM | [18] 22.3 µM | [19] 39.6 µM | [20] 38 µM

O=[N+]([O-])c1cccc(-c2cn3c(n2)Cc2ccccc2C3)c1
inactive: [1] 50.8 µM | [2] > 100 µM | [3] 87.3 µM | [4] 12.3 µM | [5] 9.68 µM | [6] > 100 µM | [7] 53 µM | [9] 83.4 µM | [10] > 100 µM | [11] 24.9 µM | [12] 45.5 µM | [13] 15.6 µM | [14] > 100 µM | [15] > 100 µM | [16] 34.9 µM | [17] > 100 µM | [18] > 100 µM | [19] 59.6 µM | [20] > 100 µM

Cc1cc(S(=O)(=O)Nc2nc(-c3ccccn3)n[nH]2)c(S)cc1Cl
inactive: [1] 42.2 µM | [2] 25.3 µM | [3] 30.9 µM | [4] 15.3 µM | [5] 22.7 µM | [6] 19.2 µM | [7] 7.96 µM | [8] 33.7 µM | [9] 25.1 µM | [11] 20.4 µM | [12] 25.9 µM | [13] 5.21 µM | [14] 15.8 µM | [15] 16.9 µM | [16] 10.3 µM | [17] 12.3 µM | [18] 16.1 µM | [20] 6.5 µM

CSc1nc(SC)c2c(C)cn(COCCOC(=O)c3ccccc3)c2n1
inactive: [1] > 100 µM | [2] > 100 µM | [4] > 100 µM | [5] 59.6 µM | [6] 69.8 µM | [7] > 100 µM | [8] 69.5 µM | [9] > 100 µM | [11] > 100 µM | [12] > 100 µM | [13] > 100 µM | [14] > 100 µM | [15] > 100 µM | [16] > 100 µM | [17] > 100 µM | [18] 36.7 µM | [19] > 100 µM | [20] > 100 µM

CO/C(=N\N=C\c1cccc(Cl)c1)c1ccncc1
inactive: [1] > 10 µM | [3] > 10 µM | [4] > 10 µM | [5] > 10 µM | [6] > 10 µM | [8] > 10 µM | [9] > 10 µM | [10] > 10 µM | [11] > 10 µM | [12] > 10 µM | [13] > 10 µM | [14] > 10 µM | [15] > 10 µM | [16] > 10 µM | [17] > 10 µM | [18] > 10 µM | [19] > 10 µM | [20] > 10 µM

O=P1(Cc2ccccc2)N(Cc2ccccc2)[C@@H]2CCCC[C@H]2N1Cc1ccccc1
inactive: [1] 6.82 µM | [2] 6.18 µM | [3] 6.41 µM | [4] 5.32 µM | [5] 2.72 µM | [6] 12.6 µM | [7] 7.74 µM | [9] 5.96 µM | [10] 5 µM | [11] 5.86 µM | [12] 5.77 µM | [13] 10.4 µM | [14] 12.4 µM | [15] 10.6 µM | [16] 11.2 µM | [17] 2.2 µM | [18] 4.67 µM | [19] 9.98 µM | [20] 5.85 µM
